Source: US12728123B2, “Product” (Sesh Products Inc., priority 2012, dated 2026)

Conditions: at a pH of about 8.8

With `CN1CCCC1c1cccnc1` (stereo not shown) [nicotine] the “nicotine in the nonprotonated form” value was “approximately 90%”.
